The target of data set [1] is T1, BCRP (BCRP-MDCKII monolayer) (Homo sapiens, UniProt Q9UNQ0).
T1 construct: host or cells: MDCKII (canine kidney) cells
T1 sequence (Q9UNQ0 1-655): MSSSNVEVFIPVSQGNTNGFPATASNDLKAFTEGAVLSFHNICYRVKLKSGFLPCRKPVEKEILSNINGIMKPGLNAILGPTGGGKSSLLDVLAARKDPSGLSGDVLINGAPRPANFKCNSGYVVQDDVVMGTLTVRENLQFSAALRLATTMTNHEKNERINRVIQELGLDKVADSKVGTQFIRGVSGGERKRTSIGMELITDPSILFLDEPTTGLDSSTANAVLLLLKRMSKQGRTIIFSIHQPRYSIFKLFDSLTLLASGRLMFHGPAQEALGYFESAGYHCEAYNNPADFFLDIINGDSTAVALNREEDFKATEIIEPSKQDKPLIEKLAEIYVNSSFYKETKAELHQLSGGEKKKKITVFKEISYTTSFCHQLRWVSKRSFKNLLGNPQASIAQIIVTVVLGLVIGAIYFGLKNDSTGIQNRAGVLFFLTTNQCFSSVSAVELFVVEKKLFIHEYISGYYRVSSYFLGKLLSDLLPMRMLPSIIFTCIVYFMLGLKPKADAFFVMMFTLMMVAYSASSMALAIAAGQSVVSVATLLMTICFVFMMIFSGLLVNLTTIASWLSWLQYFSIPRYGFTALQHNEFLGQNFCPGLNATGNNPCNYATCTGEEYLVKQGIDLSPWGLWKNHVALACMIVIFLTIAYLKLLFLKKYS
Briefly: MDCKII-BCRP bidirectional transport assay. In kind it is in vitro ADME. The settings on record: for MDCK-BCRP: Papp A-B: apical to basolateral. In a few lines:
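Bidirectional A→B and B→A transport across PreadyPort BCRP-MDCKII monolayers (days 12–15) was run in duplicate for 120 min at 37° C, 5% CO2 after a 15 min preincubation. Compound levels were measured by LC-MS/MS. Papp and recovery were calculated, with efflux ratio indicating transporter engagement.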

The nature of data set [2]: Kinetic solubility assay. In kind it is physicochemical. To be noted: kinetic solubility, 50 mM PB (pH 7.4), shaken 24 hours at RT. Summed up:
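Test compounds from 10 mM DMSO stock were diluted in 50 mM phosphate buffer, pH 7.4, and shaken for 24 h at RT. After PTFE filtration and centrifugation, filtrate concentration was quantified by UPLC-UV/HPLC-UV against a standard curve.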

Data set [3] deals with T2, wtKIT (Homo sapiens, UniProt P10721).
T2 construct: 1888289AM in the reaction mixtures
Briefly: Caliper biochemical assay, wtKIT. To be noted: Table 6, read-out: KIT Biochemical IC50 avg. In a few lines:
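Enzyme (5.0 nM wtKIT), 1 μM FAM-labelled peptide, 400 μM ATP and 10 mM MnCl2 in HEPES pH 7.5 with 1% DMSO, incubated 3 h at 25° C. EDTA quench; substrate and phosphoproduct separated by microfluidic electrophoresis and quantified by fluorescence.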

Data set [4] concerns the target T3, PDGFRα (Homo sapiens, UniProt P16234).
T3 construct: purchased Millipore 14-467 (lot 26321_ACTI)
Kind of data set: Caliper biochemical assay, PDGFRα. To be noted: Table 6. On the procedure: (§1) Enzyme, substrate, and cofactors (ATP and Mn^2+) are combined in a well of a microtiter plate and incubated for 3 hours at 25° C. At the end of the incubation, the reaction is quenched by the addition of an EDTA-containing buffer. Substrate and product are separated electrophoretically using the microfluidic-based LabChip 3000 Drug Discovery System from Caliper Life Sciences* and quantitated by fluorescence intensity.
(§2) The substrate used in the CSF-1R and PDGFRα assay is FAM-[…]-CONH2 (FAM is carboxyfluorescein). Peptide should be >95% purity. The substrate for the KIT assay is FAM-[…]-NH2.
(§3) • 1. To a well of a 384-well plate add 5 μL of 2× enzyme buffer (or control) • 2. Add 100 nL of 100× compound. • 3. Add 5 μL of 2× substrate buffer. • 4. Incubate plate at 25° C. for 3 hours. • 5. Add 10 uL of […]. • 6. Read plate LabChip 3000 Drug Discovery System
(§4) • 3 hours at 25° C. where 100% Inhibitor: No enzyme.

The target in data set [5] is T4, CSF-1R (Homo sapiens, UniProt P07333).
T4 construct: purchased Invitrogen PV3249 (lot 662393N)
Kind of data set: Caliper biochemical assay, CSF-1R. To be noted: Table 6. On the procedure: as §1, §2, §3, §4

For data set [6], the target named is T2, wtKIT. Kind of data set: HTRF biochemical assay, wtKIT (phosphorylation of a peptide substrate). To be noted: Table 4. In a few lines:
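wtKIT (5.0 nM) phosphorylating 1 µM FAM-labelled peptide with 400 µM ATP and 10 mM MnCl2 in 100 mM HEPES pH 7.5, 1% DMSO, 3 h at 25 °C. EDTA quench; phosphopeptide detected with anti-phosphotyrosine antibody by HTRF. Enzyme titrated for 10-20% substrate conversion.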

Here are results for 19 compounds from US20240254119A1 (THIRD HARMONIC BIO, INC., priority 2022, published 2024).

T3 sequence (P16234 24-1089): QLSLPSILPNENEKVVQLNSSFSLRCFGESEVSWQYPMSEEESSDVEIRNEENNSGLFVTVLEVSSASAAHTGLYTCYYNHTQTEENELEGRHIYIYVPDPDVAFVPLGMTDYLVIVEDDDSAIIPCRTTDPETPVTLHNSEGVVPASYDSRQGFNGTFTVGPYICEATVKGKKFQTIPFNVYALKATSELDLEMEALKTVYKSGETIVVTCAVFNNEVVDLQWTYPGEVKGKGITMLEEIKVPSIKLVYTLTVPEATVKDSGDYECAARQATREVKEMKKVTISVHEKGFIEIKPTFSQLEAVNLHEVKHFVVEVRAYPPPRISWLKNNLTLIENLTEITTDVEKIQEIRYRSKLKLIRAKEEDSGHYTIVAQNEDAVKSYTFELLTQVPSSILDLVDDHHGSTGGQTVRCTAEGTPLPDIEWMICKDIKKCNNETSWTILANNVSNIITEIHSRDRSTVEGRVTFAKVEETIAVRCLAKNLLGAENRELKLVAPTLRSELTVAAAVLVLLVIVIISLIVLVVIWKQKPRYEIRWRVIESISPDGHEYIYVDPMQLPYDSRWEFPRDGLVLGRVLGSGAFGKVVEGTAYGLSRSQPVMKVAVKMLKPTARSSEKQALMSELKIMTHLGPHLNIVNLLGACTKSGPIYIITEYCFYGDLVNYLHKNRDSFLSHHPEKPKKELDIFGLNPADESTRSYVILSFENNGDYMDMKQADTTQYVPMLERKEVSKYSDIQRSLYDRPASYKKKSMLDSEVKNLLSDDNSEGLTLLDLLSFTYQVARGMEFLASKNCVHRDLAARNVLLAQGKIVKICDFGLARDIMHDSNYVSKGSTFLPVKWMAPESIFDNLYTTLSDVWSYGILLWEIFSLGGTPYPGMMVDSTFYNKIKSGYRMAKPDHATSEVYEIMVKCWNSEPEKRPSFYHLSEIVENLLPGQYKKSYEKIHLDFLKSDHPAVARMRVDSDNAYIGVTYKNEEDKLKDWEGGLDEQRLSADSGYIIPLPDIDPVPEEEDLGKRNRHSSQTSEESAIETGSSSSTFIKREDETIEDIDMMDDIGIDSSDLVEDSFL
T4 sequence (P07333 20-972): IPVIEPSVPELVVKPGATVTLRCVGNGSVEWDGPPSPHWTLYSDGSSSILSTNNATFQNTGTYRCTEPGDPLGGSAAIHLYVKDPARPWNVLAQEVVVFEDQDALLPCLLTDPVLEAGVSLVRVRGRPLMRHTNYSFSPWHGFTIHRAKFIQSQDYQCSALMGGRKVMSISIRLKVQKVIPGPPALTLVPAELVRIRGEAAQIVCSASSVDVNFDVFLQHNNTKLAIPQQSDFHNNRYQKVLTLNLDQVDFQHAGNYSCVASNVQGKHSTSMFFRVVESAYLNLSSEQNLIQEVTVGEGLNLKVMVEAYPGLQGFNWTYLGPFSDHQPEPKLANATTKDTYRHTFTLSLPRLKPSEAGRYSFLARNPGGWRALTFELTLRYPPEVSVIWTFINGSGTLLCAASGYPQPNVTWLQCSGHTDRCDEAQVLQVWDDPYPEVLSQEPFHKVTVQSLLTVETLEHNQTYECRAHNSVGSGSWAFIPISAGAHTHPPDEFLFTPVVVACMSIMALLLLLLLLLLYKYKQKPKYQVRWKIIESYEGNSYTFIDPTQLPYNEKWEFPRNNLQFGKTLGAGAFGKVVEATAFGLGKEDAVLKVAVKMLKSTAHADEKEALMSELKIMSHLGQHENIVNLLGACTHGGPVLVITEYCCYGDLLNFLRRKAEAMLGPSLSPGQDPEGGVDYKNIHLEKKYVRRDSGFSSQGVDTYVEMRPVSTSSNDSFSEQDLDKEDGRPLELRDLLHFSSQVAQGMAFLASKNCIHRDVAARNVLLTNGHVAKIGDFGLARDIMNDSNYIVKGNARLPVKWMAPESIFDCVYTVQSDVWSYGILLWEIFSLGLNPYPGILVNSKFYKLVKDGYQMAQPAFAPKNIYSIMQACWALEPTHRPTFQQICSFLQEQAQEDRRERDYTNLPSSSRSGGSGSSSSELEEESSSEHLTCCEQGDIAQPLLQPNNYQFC
T2 sequence (P10721 26-976): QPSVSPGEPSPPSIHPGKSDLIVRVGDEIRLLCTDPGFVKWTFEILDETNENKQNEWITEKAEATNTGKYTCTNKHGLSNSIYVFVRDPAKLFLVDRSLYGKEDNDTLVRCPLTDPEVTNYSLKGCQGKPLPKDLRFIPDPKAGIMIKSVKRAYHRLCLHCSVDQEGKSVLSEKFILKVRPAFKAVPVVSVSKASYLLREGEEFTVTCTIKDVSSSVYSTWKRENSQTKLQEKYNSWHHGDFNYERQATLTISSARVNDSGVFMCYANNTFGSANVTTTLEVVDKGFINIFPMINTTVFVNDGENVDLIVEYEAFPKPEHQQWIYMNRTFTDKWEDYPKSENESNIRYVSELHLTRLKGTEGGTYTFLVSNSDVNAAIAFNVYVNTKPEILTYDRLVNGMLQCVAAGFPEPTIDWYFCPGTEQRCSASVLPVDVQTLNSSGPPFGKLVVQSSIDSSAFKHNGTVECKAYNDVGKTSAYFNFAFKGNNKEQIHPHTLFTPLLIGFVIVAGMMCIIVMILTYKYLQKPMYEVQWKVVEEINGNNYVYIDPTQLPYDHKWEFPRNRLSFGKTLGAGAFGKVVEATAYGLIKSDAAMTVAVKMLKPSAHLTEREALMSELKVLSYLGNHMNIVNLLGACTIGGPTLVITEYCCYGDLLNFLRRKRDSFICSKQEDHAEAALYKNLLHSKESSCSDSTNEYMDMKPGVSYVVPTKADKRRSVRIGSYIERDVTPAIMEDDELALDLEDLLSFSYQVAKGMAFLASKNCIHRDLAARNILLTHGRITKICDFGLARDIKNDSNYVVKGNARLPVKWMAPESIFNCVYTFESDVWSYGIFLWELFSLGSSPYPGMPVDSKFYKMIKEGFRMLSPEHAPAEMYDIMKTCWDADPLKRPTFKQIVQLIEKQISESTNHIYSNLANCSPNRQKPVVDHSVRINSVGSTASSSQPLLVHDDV

Consider `COC(=O)N1CC(c2nc(-c3ccc(C)c(NC(=O)c4cnn5cc(Br)ccc45)c3)no2)C1` [Compound I-312], for which the “MDCK-BCRP: Efflux Ratio” value in data set [1] is listed as 1.42. For the same compound, the “MDCK-BCRP: Papp A-B” value in data set [1] is 13.3 10^−6 cm/s. The “Solubility (μM)” value in data set [2] is recorded as “**** (a solubility less than or equal to 2 μM)”. For the same compound, the half-inhibitory concentration (IC50) was no more than 50 nM in data set [3], 500 to 5000 nM in data set [4] and no more than 50 nM in data set [5].
As for `COC12CC(c3nc(-c4ccc(C)c(NC(=O)c5cnc6ccccn56)c4)no3)(C1)C2` [Compound I-368], the “MDCK-BCRP: Efflux Ratio” value in data set [1] was 1.09. Also, the “MDCK-BCRP: Papp A-B” value in data set [1] was 15 10^−6 cm/s. Moreover, the “Solubility (μM)” value in data set [2] is reported as “**** (a solubility less than or equal to 2 μM)”. For the same compound, the results for the IC50 in data set [3], in data set [4] and in data set [5] were no more than 50 nM, 50 to 500 nM and 50 to 500 nM, respectively.
As for `Cc1ccc(-c2noc(CC3CCCOC3)n2)cc1NC(=O)c1cnc2ccccn12` (racemic) [Compound I-362], the “MDCK-BCRP: Efflux Ratio” value in data set [1] is on record as 1.35. For the same compound, the “MDCK-BCRP: Papp A-B” value in data set [1] is given as 8.71 10^−6 cm/s. Moreover, the “Solubility (μM)” value in data set [2] is “*** (a solubility greater than 2 μM and less than or equal to 10 μM)”. The IC50 in data set [3] was no more than 50 nM; in data set [4], 500 to 5000 nM; in data set [5], 50 to 500 nM.
In the case of `Cc1ccc(-c2noc(C34COC(C)(C3)C4)n2)cc1NC(=O)c1cnc2ccccn12` [Compound I-344], in data set [1], the “MDCK-BCRP: Efflux Ratio” value came out at 1.48. Also, the “MDCK-BCRP: Papp A-B” value in data set [1] is recorded as 11.5 10^−6 cm/s. The “Solubility (μM)” value in data set [2] was “*** (a solubility greater than 2 μM and less than or equal to 10 μM)”. For the same compound, the results for the half-maximal inhibitory concentration (IC50) in data set [3], in data set [4] and in data set [5] were no more than 50 nM, 500 to 5000 nM and no more than 50 nM, respectively.
For `Cc1ccc(-c2noc(C3CCC(F)C3)n2)cc1NC(=O)c1cnc2ccccn12` (racemic) [Compound I-318], the “MDCK-BCRP: Efflux Ratio” value in data set [1] is given as 0.93. Also, the “MDCK-BCRP: Papp A-B” value in data set [1] was 13.9 10^−6 cm/s. The “Solubility (μM)” value in data set [2] was “*** (a solubility greater than 2 μM and less than or equal to 10 μM)”. In addition, the values for the IC50 in data set [3], in data set [4] and in data set [5] were no more than 50 nM, 50 to 500 nM and no more than 50 nM, respectively.
Consider `COC(=O)CS(=O)(=O)N1CCC1c1nc(-c2ccc(C)c(NC(=O)c3cnc4ccccn34)c2)no1` (centres unmarked) [Compound I-197], for which the “Solubility (μM)” value in data set [2] was “*** (a solubility greater than 2 μM and less than or equal to 10 μM)”. Besides, the 50% inhibitory concentration (IC50) in data set [3] was no more than 50 nM; in data set [4], 500 to 5000 nM; in data set [5] it was 50 to 500 nM.
Regarding `COC(=O)CS(=O)(=O)N1CC[C@H]1c1nc(-c2ccc(C)c(NC(=O)c3cnc4ccccn34)c2)no1` [Compound I-188], the “Solubility (μM)” value in data set [2] was “*** (a solubility greater than 2 μM and less than or equal to 10 μM)”. Moreover, the IC50 in data set [3] was no more than 50 nM; in data set [4], 50 to 500 nM; in data set [5], 50 to 500 nM.
For `Cc1ccc(-c2noc([C@H]3C[C@@H]3F)n2)cc1NC(=O)c1cnc2cc(Nc3ccc4c(c3)OCCO4)ccn12` [Compound I-301], the “Solubility (μM)” value in data set [2] is recorded as “**** (a solubility less than or equal to 2 μM)”. In addition, the IC50 in data set [3], in data set [4] and in data set [5] was no more than 50 nM each time.
Take `COC(=O)N1CC(c2nc(-c3ccc(C)c(NC(=O)c4cnc5cc(COCC(F)(F)F)ccn45)c3)no2)C1` [Compound I-128]: the “Solubility (μM)” value in data set [2] is reported as “**** (a solubility less than or equal to 2 μM)”. The IC50 in data set [3] is no more than 50 nM; in data set [4], 5000 to 30000 nM; in data set [5], 50 to 500 nM.
In the case of `Cc1ccc(Nc2ccn3c(C(=O)Nc4cc(-c5noc([C@H]6C[C@@H]6F)n5)ccc4C)cnc3c2)cc1` [Compound I-302], the “Solubility (μM)” value in data set [2] was “**** (a solubility less than or equal to 2 μM)”. Also, the IC50 in data set [3], in data set [4] and in data set [5] was no more than 50 nM throughout.
`Cc1ccc(-c2noc([C@@H]3CCC(C)(C)N3)n2)cc1NC(=O)c1cnc2ccccn12` (racemic) [Compound I-232]: in data set [2], the “Solubility (μM)” value was “** (a solubility greater than 10 μM and less than or equal to 50 μM)”. Besides, the IC50 in data set [3] is no more than 50 nM; in data set [4], 50 to 500 nM; in data set [6], 50 to 500 nM; in data set [5] it was no more than 50 nM.
As for `Cc1ccc(-c2noc([C@@H]3CCN3S(=O)(=O)C3CCOCC3)n2)cc1NC(=O)c1cnc2ccccn12` [Compound I-187], the “Solubility (μM)” value in data set [2] was “** (a solubility greater than 10 μM and less than or equal to 50 μM)”. Moreover, the IC50 in data set [3], in data set [4] and in data set [5] was 50 to 500 nM in each case.
Consider `COC(=O)CS(=O)(=O)N1CC(c2nc(-c3ccc(C)c(NC(=O)c4cnc5ccccn45)c3)no2)C1` [Compound I-236], for which the “Solubility (μM)” value in data set [2] is “*** (a solubility greater than 2 μM and less than or equal to 10 μM)”. The IC50 is no more than 50 nM in data set [3], 5000 to 30000 nM in data set [4], 50 to 500 nM in data set [6] and 500 to 5000 nM in data set [5].
As to `Cc1ccc(-c2noc([C@@H]3CCN3S(=O)(=O)c3ccccc3)n2)cc1NC(=O)c1cnc2ccccn12` [Compound I-186], in data set [2], the “Solubility (μM)” value is “*** (a solubility greater than 2 μM and less than or equal to 10 μM)”. Further, the IC50 in data set [3] fell in the range of 50 to 500 nM; in data set [4], 500 to 5000 nM; in data set [5], 50 to 500 nM.
Consider `Cc1ccc(-c2noc([C@@H]3CCC(F)(F)CN3)n2)cc1NC(=O)c1cnc2ccccn12` (racemic) [Compound I-198], for which the “Solubility (μM)” value in data set [2] is “*** (a solubility greater than 2 μM and less than or equal to 10 μM)”. Moreover, the IC50 in data set [3] is no more than 50 nM; in data set [4] it was 500 to 5000 nM; in data set [5], 50 to 500 nM.
Take `Cc1ccc(-c2noc([C@H](C)NS(C)(=O)=O)n2)cc1NC(=O)c1cnc2ccccn12` [Compound I-147]: the “Solubility (μM)” value in data set [2] is “** (a solubility greater than 10 μM and less than or equal to 50 μM)”. The IC50 in data set [3] is no more than 50 nM; in data set [4], 5000 to 30000 nM; in data set [5], 50 to 500 nM.
As for `CCN1CC[C@H]1c1nc(-c2ccc(C)c(NC(=O)c3cnc4ccccn34)c2)no1` (racemic) [Compound I-180], the “Solubility (μM)” value in data set [2] is “* (a solubility greater than 50 μM)”. The IC50 in data set [3] is no more than 50 nM; in data set [4], 500 to 5000 nM; in data set [5], 50 to 500 nM.
For `Cc1ccc(-c2noc([C@H]3CCN3C(C)C)n2)cc1NC(=O)c1cnc2ccccn12` [Compound I-194], the “Solubility (μM)” value in data set [2] is “*** (a solubility greater than 2 μM and less than or equal to 10 μM)”. Further, the 50% inhibitory concentration (IC50) in data set [3] was no more than 50 nM; in data set [4], 50 to 500 nM; in data set [5] it was no more than 50 nM.
Regarding `CCS(=O)(=O)N1CC[C@@H]1c1nc(-c2ccc(C)c(NC(=O)c3cnc4ccccn34)c2)no1` [Compound I-234], the “Solubility (μM)” value in data set [2] was “** (a solubility greater than 10 μM and less than or equal to 50 μM)”. The IC50 in data set [3] was no more than 50 nM; in data set [4], 50 to 500 nM; in data set [6], 50 to 500 nM; in data set [5], no more than 50 nM.
